{
  "source": "ChEMBL document CHEMBL5726774",
  "about": "“Triterpenoids with HIV maturation inhibitory activity” (2019)",
  "key": {"[1]": {"test": "(§1) HIV Cell Culture Assay: MT-2 cells and 293T cells were obtained from the NIH AIDS Research and Reference Reagent Program. MT-2 cells were propagated in RPMI 1640 media supplemented with 10% heat-inactivated fetal bovine serum, […]. The 293T cells were propagated in DMEM media supplemented with 10% heat-inactivated fetal bovine serum (FBS), 100 units/mL penicillin G and 100 μg/mL streptomycin. The proviral DNA clone of NL4-3 was obtained from the NIH AIDS Research and Reference Reagent Program. A recombinant NL4-3 virus, in which a section of the nef gene from NL4-3 was replaced with the Renilla luciferase gene, was used as a reference virus. In addition, residue Gag P373 was converted to P373S. Briefly, the recombinant virus was prepared by transfection of the altered proviral clone of NL4-3. Transfections were performed in 293T cells using LipofectAMINE PLUS from Invitrogen (Carlsbad, Calif.), according to manufacturer's instruction. The virus was titered in MT-2 cells using luciferase enzyme activity as a marker. Luciferase was quantitated using the Dual Luciferase kit from Promega (Madison, Wis.), with modifications to the manufacturer's protocol. The diluted Passive Lysis solution was pre-mixed with the re-suspended Luciferase Assay Reagent and the re-suspended Stop & Glo Substrate (2:1:1 ratio). Fifty (50) μL of the mixture was added to each aspirated well on assay plates and luciferase activity was measured immediately on a Wallac TriLux (Perkin-Elmer). Antiviral activities of inhibitors toward the recombinant virus were quantified by measuring luciferase activity in cells infected for 4-5 days with NLRluc recombinants in the presence serial dilutions of the inhibitor.", "assay_type": "cell-based"}, "[2]": {"test": "as §1", "assay_type": "cell-based", "remark": "listed apart in the source"}},
  "data": [
    {"smiles": "C=C(C)[C@@H]1CC[C@]2(NCCC3(O)COC3)CC[C@]3(C)[C@H](CC[C@@H]4[C@@]5(C)CC=C(C6=CC[C@](CF)(C(=O)O)CC6)C(C)(C)[C@@H]5CC[C@]43C)[C@@H]12", "values": [
      {"measurement": "EC50", "setting": "[1]", "result": "> 50", "unit": "nM"},
      {"measurement": "EC50", "setting": "[2]", "result": "< 50", "unit": "nM"}
    ]},
    {"smiles": "C=C(C)[C@@H]1CC[C@]2(NCCC(O)(C3CC3)C3CC3)CC[C@]3(C)[C@H](CC[C@@H]4[C@@]5(C)CC=C(C6=CC[C@](CF)(C(=O)OCc7ccccc7)CC6)C(C)(C)[C@@H]5CC[C@]43C)[C@@H]12", "values": [
      {"measurement": "EC50", "setting": "[1]", "result": "> 50", "unit": "nM"},
      {"measurement": "EC50", "setting": "[2]", "result": "< 50", "unit": "nM"}
    ]},
    {"smiles": "CC(C)[C@@H]1CC[C@]2(NCCN3CCS(=O)(=O)CC3)CC[C@]3(C)[C@H](CC[C@@H]4[C@@]5(C)CC=C(C6CCC(CF)(C(=O)O)CC6)C(C)(C)[C@@H]5CC[C@]43C)[C@@H]12", "note": "(some centres not stated)", "values": [
      {"measurement": "EC50", "setting": "[1]", "result": "> 50", "unit": "nM"},
      {"measurement": "EC50", "setting": "[2]", "result": "< 50", "unit": "nM"}
    ]},
    {"smiles": "C=C(C)[C@@H]1CC[C@]2(NCCN3CCC(S(C)(=O)=O)CC3)CC[C@]3(C)[C@H](CC[C@@H]4[C@@]5(C)CC=C(C6=CCC(F)(OC=O)CC6)C(C)(C)[C@@H]5CC[C@]43C)[C@@H]12", "note": "(some centres not stated)", "values": [
      {"measurement": "EC50", "setting": "[2]", "result": 4, "unit": "nM"}
    ]},
    {"smiles": "C=C(C)[C@@H]1CC[C@]2(NCCN3CC(C)S(=O)(=O)C(C)C3)CC[C@]3(C)[C@H](CC[C@@H]4[C@@]5(C)CC=C(C6=CC[C@@](CF)(OC=O)CC6)C(C)(C)[C@@H]5CC[C@]43C)[C@@H]12", "note": "(some centres not stated)", "values": [
      {"measurement": "EC50", "setting": "[1]", "result": "> 50", "unit": "nM"},
      {"measurement": "EC50", "setting": "[2]", "result": "< 50", "unit": "nM"}
    ]},
    {"smiles": "C=C(C)[C@@H]1CC[C@]2(NCCN3CCS(=O)(=O)CC3C(=O)OCC)CC[C@]3(C)[C@H](CC[C@@H]4[C@@]5(C)CC=C(C6=CC[C@@](CF)(C(=O)O)CC6)C(C)(C)[C@@H]5CC[C@]43C)[C@@H]12", "note": "(some centres not stated)", "values": [
      {"measurement": "EC50", "setting": "[1]", "result": "< 50", "unit": "nM"},
      {"measurement": "EC50", "setting": "[2]", "result": "< 50", "unit": "nM"}
    ]},
    {"smiles": "C=C(C)[C@@H]1CC[C@]2(NCCN3CCS(=O)(=O)CC(C)C3)CC[C@]3(C)[C@H](CC[C@@H]4[C@@]5(C)CC=C(C6=CC[C@@](CF)(OC=O)CC6)C(C)(C)[C@@H]5CC[C@]43C)[C@@H]12", "note": "(some centres not stated)", "values": [
      {"measurement": "EC50", "setting": "[1]", "result": "> 50", "unit": "nM"},
      {"measurement": "EC50", "setting": "[2]", "result": "< 50", "unit": "nM"}
    ]},
    {"smiles": "C=C(C)[C@@H]1CC[C@]2(NCCN3CCS(=O)(=O)CC3)CC[C@]3(C)[C@H](CC[C@@H]4[C@@]5(C)CC=C(C6=CCC(C)(OC=O)CC6)C(C)(C)[C@@H]5CC[C@]43C)[C@@H]12", "note": "(some centres not stated)", "values": [
      {"measurement": "EC50", "setting": "[2]", "result": 2, "unit": "nM"}
    ]},
    {"smiles": "C=C(C)[C@@H]1CC[C@]2(NCCN3CCS(=O)(=O)CC3)CC[C@]3(C)[C@H](CC[C@@H]4[C@@]5(C)CC=C(C6=CCC(CF)(OC=O)CC6)C(C)(C)[C@@H]5CC[C@]43C)[C@@H]12", "note": "(some centres not stated)", "values": [
      {"measurement": "EC50", "setting": "[1]", "result": 210, "unit": "nM"},
      {"measurement": "EC50", "setting": "[2]", "result": 2, "unit": "nM"}
    ]},
    {"smiles": "C=C(C)[C@@H]1CC[C@]2(NC(CN3CCS(=O)(=O)CC3)C(F)(F)F)CC[C@]3(C)[C@H](CC[C@@H]4[C@@]5(C)CC=C(C6=CC[C@](CF)(C(=O)O)CC6)C(C)(C)[C@@H]5CC[C@]43C)[C@@H]12", "note": "(some centres not stated)", "values": [
      {"measurement": "EC50", "setting": "[1]", "result": "> 50", "unit": "nM"},
      {"measurement": "EC50", "setting": "[2]", "result": "> 50", "unit": "nM"}
    ]},
    {"smiles": "C=C(C)[C@@H]1CC[C@]2(NCCN3CCS(=O)(=O)CC3)CC[C@]3(C)[C@H](CC[C@@H]4[C@@]5(C)CC=C(C6=CC[C@@](CF)(OC=O)CC6)C(C)(C)[C@@H]5CC[C@]43C)[C@@H]12", "values": [
      {"measurement": "EC50", "setting": "[1]", "result": 170, "unit": "nM"},
      {"measurement": "EC50", "setting": "[2]", "result": 3, "unit": "nM"}
    ]},
    {"smiles": "C=C(C)[C@@H]1CC[C@]2(NCC[C@]3(O)CC[C@H](S(C)(=O)=O)CC3)CC[C@]3(C)[C@H](CC[C@@H]4[C@@]5(C)CC=C(C6=CC[C@](CF)(C(=O)O)CC6)C(C)(C)[C@@H]5CC[C@]43C)[C@@H]12", "values": [
      {"measurement": "EC50", "setting": "[1]", "result": "> 50", "unit": "nM"},
      {"measurement": "EC50", "setting": "[2]", "result": "< 50", "unit": "nM"}
    ]},
    {"smiles": "C=C(C)[C@@H]1CC[C@]2(NCCN3CC(C)S(=O)(=O)C(C)C3)CC[C@]3(C)[C@H](CC[C@@H]4[C@@]5(C)CC=C(C6=CC[C@](CF)(OC=O)CC6)C(C)(C)[C@@H]5CC[C@]43C)[C@@H]12", "note": "(some centres not stated)", "values": [
      {"measurement": "EC50", "setting": "[1]", "result": "> 50", "unit": "nM"},
      {"measurement": "EC50", "setting": "[2]", "result": "< 50", "unit": "nM"}
    ]},
    {"smiles": "C=C(C)[C@@H]1CC[C@]2(NCC[C@]3(O)CC[C@@H](S(C)(=O)=O)CC3)CC[C@]3(C)[C@H](CC[C@@H]4[C@@]5(C)CC=C(C6=CC[C@@](CF)(C(=O)O)CC6)C(C)(C)[C@@H]5CC[C@]43C)[C@@H]12", "values": [
      {"measurement": "EC50", "setting": "[1]", "result": "> 50", "unit": "nM"},
      {"measurement": "EC50", "setting": "[2]", "result": "< 50", "unit": "nM"}
    ]},
    {"smiles": "C=C(C)[C@@H]1CC[C@]2(NCCN3CCS(=O)(=O)CC(C)C3)CC[C@]3(C)[C@H](CC[C@@H]4[C@@]5(C)CC=C(C6=CC[C@](CF)(OC=O)CC6)C(C)(C)[C@@H]5CC[C@]43C)[C@@H]12", "note": "(some centres not stated)", "values": [
      {"measurement": "EC50", "setting": "[1]", "result": "> 50", "unit": "nM"},
      {"measurement": "EC50", "setting": "[2]", "result": "< 50", "unit": "nM"}
    ]},
    {"smiles": "C=C(C)[C@@H]1CC[C@]2(NCCC3(O)COC3)CC[C@]3(C)[C@H](CC[C@@H]4[C@@]5(C)CC=C(C6=CC[C@@](CF)(C(=O)O)CC6)C(C)(C)[C@@H]5CC[C@]43C)[C@@H]12", "values": [
      {"measurement": "EC50", "setting": "[1]", "result": "> 50", "unit": "nM"},
      {"measurement": "EC50", "setting": "[2]", "result": "< 50", "unit": "nM"}
    ]},
    {"smiles": "C=C(C)[C@@H]1CC[C@]2(NCCN3CCS(=O)(=O)CC3)CC[C@]3(C)[C@H](CC[C@@H]4[C@@]5(C)CC=C(C6=CC[C@](CF)(OC=O)CC6)C(C)(C)[C@@H]5CC[C@]43C)[C@@H]12", "values": [
      {"measurement": "EC50", "setting": "[1]", "result": 780, "unit": "nM"},
      {"measurement": "EC50", "setting": "[2]", "result": 2, "unit": "nM"}
    ]}
  ]
}
